Reference: ChEMBL document CHEMBL3885861, “Open TG-GATES”

Species: Rattus norvegicus
Test: Open TG-GATES - Regimen: Single
Assay type: toxicity, organism-based, Sprague-Dawley
Design: regimen Single, gender Male, age 6 weeks
Settings: in vivo, po, 200 mg/kg, route gavage, dose level High; for APTT / Bas / Eos / Fbg / Hb / Ht / Lym / MCH / MCHC / MCV / Mono / Neu / PT / Plat / RBC / Ret / WBC: tissue Blood; for KIDNEY_L / KIDNEY_R / KIDNEY_TOTAL: tissue Kidney; for LIVER: tissue Liver; for A/G / ALP / ALT / AST / BUN / CRE / Ca / Cl / DBIL / GLC / IP / K / LDH / Na / PL / RALB / TBIL / TC / TG / TP / gamma-GTP: tissue Plasma

Work on `CC(CN1c2ccccc2Sc2ccccc21)N(C)C` (configuration not stated) [PROMETHAZINE] yielded a TERMINAL_BW (3 h) of 219.2 g, an APTT (3 h) of 23.5 s and a Bas (3 h) of 0%. The Eos (3 h) was 0.8%, the Fbg (3 h) was 315.2 mg/dL and the Hb (3 h) was 13.5 g/dL. It also gave a Ht (3 h) of 40.9%, a Lym (3 h) of 78.4% and an MCH (3 h) of 21 pg. It also gave an MCHC (3 h) of 32.9%, an MCV (3 h) of 63.9 fL and a Mono (3 h) of 3%. It also gave a Neu (3 h) of 17%, a PT (3 h) of 16.4 s and a Plat (3 h) of 126.9 x10_4/uL. For the same compound, the RBC (3 h) was 640.8 x10_4/ul, the Ret (3 h) was 7.8% and the WBC (3 h) was 66.9 x10_2/uL. The KIDNEY_L (3 h) was 0.9 g, the KIDNEY_R (3 h) was 1 g and the KIDNEY_TOTAL (3 h) was 1.9 g. For the same compound, the LIVER (3 h) was 9.7 g, the A/G (3 h) was 1.3 and the ALP (3 h) was 1534.6 IU/L. The ALT (3 h) was 59 IU/L, the AST (3 h) was 90.2 IU/L and the BUN (3 h) was 11.8 mg/dL. For the same compound, the CRE (3 h) was 0.1 mg/dL, the Ca (3 h) was 10.8 mg/dL and the Cl (3 h) was 105.4 meq/L. It also gave a DBIL (3 h) of 0.036 mg/dL, a GLC (3 h) of 181 mg/dL and an IP (3 h) of 10.1 mg/dL. It also gave a K (3 h) of 4.3 meq/L, an LDH (3 h) of 211.8 IU/L and a Na (3 h) of 141.6 meq/L. The PL (3 h) was 135.4 mg/dL, the RALB (3 h) was 3.2 g/dL and the TBIL (3 h) was 0.024 mg/dL. For the same compound, the TC (3 h) was 77.2 mg/dL, the TG (3 h) was 47.4 mg/dL and the TP (3 h) was 5.6 g/dL. The gamma-GTP (3 h) was 1.2 IU/L, the TERMINAL_BW (6 h) was 215.1 g and the APTT (6 h) was 24 s. The Bas (6 h) was 0%, the Eos (6 h) was 0.4% and the Fbg (6 h) was 348.2 mg/dL. For the same compound, the Hb (6 h) was 13.5 g/dL, the Ht (6 h) was 40.8% and the Lym (6 h) was 72.4%. The MCH (6 h) was 20.7 pg, the MCHC (6 h) was 33.1% and the MCV (6 h) was 62.7 fL. It also gave a Mono (6 h) of 2.6%, a Neu (6 h) of 23.4% and a PT (6 h) of 16.5 s. The Plat (6 h) was 123.7 x10_4/uL, the RBC (6 h) was 650.4 x10_4/ul and the Ret (6 h) was 7.5%. For the same compound, the WBC (6 h) was 56.6 x10_2/uL, the KIDNEY_L (6 h) was 0.9 g and the KIDNEY_R (6 h) was 0.9 g. The KIDNEY_TOTAL (6 h) was 1.9 g, the LIVER (6 h) was 9.1 g and the A/G (6 h) was 1.2. It also gave an ALP (6 h) of 1235.6 IU/L, an ALT (6 h) of 44.8 IU/L and an AST (6 h) of 77.8 IU/L. The BUN (6 h) was 9.8 mg/dL, the CRE (6 h) was 0.2 mg/dL and the Ca (6 h) was 10.7 mg/dL. For the same compound, the Cl (6 h) was 106.4 meq/L, the DBIL (6 h) was 0.018 mg/dL and the GLC (6 h) was 184.8 mg/dL. The IP (6 h) was 9.4 mg/dL, the K (6 h) was 4.4 meq/L and the LDH (6 h) was 237.2 IU/L. It also gave a Na (6 h) of 141 meq/L, a PL (6 h) of 130.2 mg/dL and an RALB (6 h) of 3.1 g/dL. The TBIL (6 h) was 0.016 mg/dL, the TC (6 h) was 76 mg/dL and the TG (6 h) was 42 mg/dL. For the same compound, the TP (6 h) was 5.7 g/dL, the gamma-GTP (6 h) was 1.4 IU/L and the TERMINAL_BW (9 h) was 208.1 g. For the same compound, the APTT (9 h) was 24 s, the Bas (9 h) was 0% and the Eos (9 h) was 0.6%. The Fbg (9 h) was 316.4 mg/dL, the Hb (9 h) was 13.6 g/dL and the Ht (9 h) was 41.5%. The Lym (9 h) was 76%, the MCH (9 h) was 20.4 pg and the MCHC (9 h) was 32.9%. It also gave an MCV (9 h) of 62.2 fL, a Mono (9 h) of 2.2% and a Neu (9 h) of 20.8%. It also gave a PT (9 h) of 16.4 s, a Plat (9 h) of 129.1 x10_4/uL and an RBC (9 h) of 667.2 x10_4/ul. The Ret (9 h) was 7.4%, the WBC (9 h) was 67.2 x10_2/uL and the KIDNEY_L (9 h) was 0.9 g. The KIDNEY_R (9 h) was 0.9 g, the KIDNEY_TOTAL (9 h) was 1.8 g and the LIVER (9 h) was 8.4 g. For the same compound, the A/G (9 h) was 1.2, the ALP (9 h) was 1643.2 IU/L and the ALT (9 h) was 39.6 IU/L. It also gave an AST (9 h) of 69.2 IU/L, a BUN (9 h) of 10 mg/dL and a CRE (9 h) of 0.2 mg/dL. It also gave a Ca (9 h) of 10.5 mg/dL, a Cl (9 h) of 106.2 meq/L and a DBIL (9 h) of 0.026 mg/dL. The GLC (9 h) was 187 mg/dL, the IP (9 h) was 9.1 mg/dL and the K (9 h) was 4.2 meq/L. For the same compound, the LDH (9 h) was 178.8 IU/L, the Na (9 h) was 141 meq/L and the PL (9 h) was 133.6 mg/dL. It also gave an RALB (9 h) of 3.1 g/dL, a TBIL (9 h) of 0.016 mg/dL and a TC (9 h) of 75.6 mg/dL. The TG (9 h) was 43 mg/dL, the TP (9 h) was 5.6 g/dL and the gamma-GTP (9 h) was 1 IU/L. The TERMINAL_BW (24 h) was 209.6 g, the APTT (24 h) was 22.3 s and the Bas (24 h) was 0%. For the same compound, the Eos (24 h) was 0.8%, the Fbg (24 h) was 311.2 mg/dL and the Hb (24 h) was 13.7 g/dL. For the same compound, the Ht (24 h) was 41.5%, the Lym (24 h) was 77.8% and the MCH (24 h) was 20.1 pg. The MCHC (24 h) was 33%, the MCV (24 h) was 60.8 fL and the Mono (24 h) was 2.4%. For the same compound, the Neu (24 h) was 19%, the PT (24 h) was 16.8 s and the Plat (24 h) was 138.5 x10_4/uL. The RBC (24 h) was 684.4 x10_4/ul, the Ret (24 h) was 6.4% and the WBC (24 h) was 71.5 x10_2/uL. It also gave a KIDNEY_L (24 h) of 0.9 g, a KIDNEY_R (24 h) of 0.9 g and a KIDNEY_TOTAL (24 h) of 1.9 g. For the same compound, the LIVER (24 h) was 8.6 g, the A/G (24 h) was 1.3 and the ALP (24 h) was 1472.4 IU/L. For the same compound, the ALT (24 h) was 40.8 IU/L, the AST (24 h) was 68 IU/L and the BUN (24 h) was 14.6 mg/dL. For the same compound, the CRE (24 h) was 0.2 mg/dL, the Ca (24 h) was 10.7 mg/dL and the Cl (24 h) was 107.6 meq/L. The DBIL (24 h) was 0.018 mg/dL, the GLC (24 h) was 185.2 mg/dL and the IP (24 h) was 8.3 mg/dL. The K (24 h) was 4.2 meq/L, the LDH (24 h) was 190 IU/L and the Na (24 h) was 142.4 meq/L. For the same compound, the PL (24 h) was 139 mg/dL, the RALB (24 h) was 3.1 g/dL and the TBIL (24 h) was 0.018 mg/dL. For the same compound, the TC (24 h) was 79.4 mg/dL, the TG (24 h) was 43.4 mg/dL and the TP (24 h) was 5.6 g/dL. The gamma-GTP (24 h) was 1 IU/L.
